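Protocol summary: plate cells (96-well), add compound at 5 concentrations, incubate 48 h, interpolate endpoints linearly. At the GI50, growth is halved.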 Calls of active or inactive are those of the source. No stated cut-off is given here; in the data, active = GI50 up to about 1.1 µM and inactive = higher.

Test systems include HOP-62; RPMI-8226; OVCAR-3; UACC-257; SF-539; SK-OV-3; ACHN; HT-29; OVCAR-8; MDA-MB-231; TK-10; SK-MEL-5; MOLT-4; MDA-MB-435; HOP-92; Hs-578T; SF-268; HL-60; SR.
Assay in all cases: NCI tumour cell line growth inhibition, 48 h

As to `NCCCCN(CCCN)C(=O)c1ccccc1`, the GI50 in the assay on HOP-62, in the assay with RPMI-8226, in the assay on OVCAR-3, in the assay on UACC-257, in the assay on SF-539 and in the assay on SK-OV-3 was > 100 µM (inactive) in each case. In addition, the GI50 in the assay with ACHN, in the assay on HT-29, in the assay with OVCAR-8, in the assay with MDA-MB-231, in the assay with TK-10 and in the assay with SK-MEL-5 was > 100 µM (inactive) throughout. Further, the GI50 with MOLT-4, in the assay with MDA-MB-435, in the assay on HOP-92, in the assay with Hs-578T, in the assay with SF-268 and in the assay on HL-60 was > 100 µM (inactive) throughout.
Take `CC1(C)OCN(c2ccc(N3CCOCC3)cc2)Cn2c1nc1ccccc12`: the GI50 is > 100 µM (inactive) with HOP-62; 27.9 µM (inactive) in the assay on RPMI-8226; > 100 µM (inactive) in the assay on OVCAR-3; 31.2 µM (inactive) in the assay on SR; 46.1 µM (inactive) with UACC-257; 88.1 µM (inactive) in the assay on SF-539. For the same compound, the GI50 was > 100 µM (inactive) in the assay with SK-OV-3; 64 µM (inactive) in the assay on ACHN; > 100 µM (inactive) in the assay on HT-29; > 100 µM (inactive) in the assay on OVCAR-8; > 100 µM (inactive) in the assay with TK-10; > 100 µM (inactive) in the assay with MOLT-4. The results for the GI50 in the assay on HOP-92, with SF-268 and in the assay with HL-60 were > 100 µM (inactive), > 100 µM (inactive) and 26.4 µM (inactive), respectively.
In the case of `O=[N+]([O-])c1nccn1COCCI`, the GI50 in the assay with HOP-62, with RPMI-8226, with OVCAR-3, in the assay with SR, in the assay on UACC-257 and with SF-539 was > 100 µM (inactive) in each case. In addition, the GI50 with SK-OV-3, in the assay with ACHN, with HT-29, with OVCAR-8, in the assay on TK-10 and with SK-MEL-5 was > 100 µM (inactive) in each case. Further, the GI50 with MOLT-4, with HOP-92, in the assay on SF-268 and in the assay on HL-60 was > 100 µM (inactive) throughout.
For `NS(=O)(=O)c1ccc(NC(=O)c2cccc3c(=O)c4ccccc4[nH]c23)cc1`, the GI50 was 39.8 µM (inactive) in the assay on HOP-62; 28.4 µM (inactive) in the assay on RPMI-8226; > 100 µM (inactive) in the assay with OVCAR-3; 22 µM (inactive) in the assay on SR; > 100 µM (inactive) in the assay on UACC-257; 22.7 µM (inactive) in the assay on SF-539. Besides, the GI50 in the assay on SK-OV-3 is 19.9 µM (inactive); in the assay with ACHN it was > 100 µM (inactive); in the assay on HT-29 it was > 100 µM (inactive); with OVCAR-8, > 100 µM (inactive); in the assay on TK-10, 89.1 µM (inactive); with SK-MEL-5, 65.5 µM (inactive). In addition, the GI50 with MOLT-4 is 18.2 µM (inactive); with HOP-92 it was > 100 µM (inactive); in the assay on SF-268, 30.6 µM (inactive); in the assay on HL-60, 31.8 µM (inactive).
Take `CC1(Cl)C(=O)NC(=O)N([C@H]2C[C@H](O)[C@@H](CO)O2)C1N=[N+]=[N-]` (stereo partly specified): the GI50 in the assay on HOP-62, in the assay on RPMI-8226, with OVCAR-3, in the assay on SR, in the assay on UACC-257 and in the assay with SF-539 was > 100 µM (inactive) throughout. Moreover, the GI50 in the assay on SK-OV-3, in the assay with ACHN, with HT-29, with OVCAR-8, in the assay with TK-10 and in the assay on SK-MEL-5 was > 100 µM (inactive) in each case. The GI50 with MOLT-4, in the assay on HOP-92, in the assay on SF-268 and with HL-60 was > 100 µM (inactive) in each case.
On to `O=C(O/N=C1/CCCC/C1=C\c1ccccc1)c1ccc(Cl)cc1`, for which the GI50 was > 100 µM (inactive) in the assay with HOP-62; > 100 µM (inactive) with RPMI-8226; > 100 µM (inactive) in the assay with OVCAR-3; 56.6 µM (inactive) with SR; > 100 µM (inactive) in the assay on UACC-257; > 100 µM (inactive) with SF-539. Besides, the GI50 in the assay on SK-OV-3 is > 100 µM (inactive); in the assay with ACHN it was > 100 µM (inactive); in the assay on HT-29, > 100 µM (inactive); with OVCAR-8 it was > 100 µM (inactive); in the assay on TK-10, > 100 µM (inactive); in the assay on SK-MEL-5 it was 89.7 µM (inactive). The results for the GI50 with HOP-92, with SF-268 and in the assay on HL-60 were 40.9 µM (inactive), > 100 µM (inactive) and 24.7 µM (inactive), respectively.
As for `CC(=O)c1cc2c3c(c1)c1cc4c(cc1c(=O)n3CC2)OCO4`, the GI50 is 44.5 µM (inactive) in the assay on HOP-62; 17.6 µM (inactive) in the assay on RPMI-8226; 33.8 µM (inactive) in the assay with OVCAR-3; 4.32 µM (inactive) with SR; 26.7 µM (inactive) in the assay with UACC-257; 32.6 µM (inactive) in the assay on SF-539. Further, the GI50 in the assay on SK-OV-3 was > 100 µM (inactive); with ACHN it was 16.9 µM (inactive); in the assay with HT-29, 19.4 µM (inactive); in the assay with OVCAR-8 it was 8.3 µM (inactive); in the assay with TK-10, 21.2 µM (inactive); in the assay on SK-MEL-5, 31 µM (inactive). Besides, the GI50 was 2.92 µM (inactive) in the assay on MOLT-4, 54.8 µM (inactive) in the assay on HOP-92 and 39.3 µM (inactive) in the assay with HL-60.
Regarding `C=C1C(=O)C23C(O)C1CC[C@H]2C12CCCC(C)(COC(C)=O)[C@H]1[C@H](O)[C@]3(O)OC2` (stereo partly specified), the GI50 in the assay with HOP-62 was 3.09 µM (inactive); with RPMI-8226, 0.318 µM (active); in the assay on OVCAR-3, 1.61 µM (inactive); with UACC-257, 1.14 µM (inactive); with SF-539, 1.68 µM (inactive); with SK-OV-3 it was 4.63 µM (inactive). Besides, the GI50 with ACHN is 1.51 µM (inactive); in the assay with HT-29, 1.8 µM (inactive); in the assay on OVCAR-8, 1.7 µM (inactive); with TK-10, 1.63 µM (inactive); with SK-MEL-5 it was 1.72 µM (inactive); in the assay with MOLT-4, 0.138 µM (active). In addition, the GI50 was 1.39 µM (inactive) in the assay with HOP-92, 2.77 µM (inactive) in the assay with Hs-578T, 3.19 µM (inactive) in the assay with SF-268 and 0.279 µM (active) in the assay on HL-60.
Regarding `Cc1ccc(NC(=O)C(=O)C2NC(=S)NC2=O)c([N+](=O)[O-])c1` (stereo unspecified), the GI50 in the assay on HOP-62, with RPMI-8226, with OVCAR-3, with SR, in the assay on UACC-257 and in the assay with SF-539 was > 100 µM (inactive) in each case. Besides, the GI50 in the assay on SK-OV-3, with ACHN, with HT-29, with OVCAR-8, in the assay with TK-10 and with SK-MEL-5 was > 100 µM (inactive) throughout. Also, the GI50 is > 100 µM (inactive) with MOLT-4, 45.5 µM (inactive) in the assay with HOP-92, > 100 µM (inactive) in the assay with SF-268 and > 100 µM (inactive) with HL-60.
Take `CC(C)[C@@H]1C=C(c2ccccc2)c2ccccc2C1C(C#N)(C#N)C(C)C` (stereo partly specified): the GI50 in the assay on HOP-62 is > 100 µM (inactive); in the assay with RPMI-8226 it was 19 µM (inactive); in the assay on OVCAR-3 it was 78.9 µM (inactive); with SR, 46.3 µM (inactive); with UACC-257, 54.5 µM (inactive); with SF-539 it was > 100 µM (inactive). For the same compound, the GI50 in the assay on SK-OV-3 was > 100 µM (inactive); in the assay with ACHN, > 100 µM (inactive); in the assay with HT-29, 68.7 µM (inactive); with OVCAR-8 it was > 100 µM (inactive); with TK-10 it was > 100 µM (inactive); in the assay with SK-MEL-5 it was 39.7 µM (inactive). The GI50 is 48.6 µM (inactive) with MOLT-4, > 100 µM (inactive) in the assay with HOP-92, > 100 µM (inactive) with SF-268 and 31.7 µM (inactive) in the assay on HL-60.
As to `O=C(/C(=C/c1ccccc1)c1ccccc1)N1c2ccccc2CC1c1c[nH]c2ccccc12` (stereo unspecified), the GI50 in the assay on HOP-62 is > 100 µM (inactive); in the assay with RPMI-8226, 15.6 µM (inactive); in the assay on OVCAR-3, 3.05 µM (inactive); with SR, > 100 µM (inactive); with UACC-257 it was 54.5 µM (inactive); in the assay on SF-539 it was > 100 µM (inactive). Moreover, the GI50 with SK-OV-3 is > 100 µM (inactive); in the assay with ACHN, 16.9 µM (inactive); in the assay with HT-29, 76.4 µM (inactive); in the assay on OVCAR-8, > 100 µM (inactive); in the assay on TK-10, 45.7 µM (inactive); with SK-MEL-5 it was 21.7 µM (inactive). For the same compound, the GI50 is 3.33 µM (inactive) in the assay with MOLT-4, 81.1 µM (inactive) in the assay on HOP-92 and 3.19 µM (inactive) in the assay with HL-60.
As for `CCOC(=O)Cc1[nH]c(C(=O)c2ccccc2)cc1C(=O)c1ccccc1`, the GI50 with HOP-62 was 23.8 µM (inactive); with RPMI-8226, > 10 µM (inactive); in the assay on OVCAR-3, 46.3 µM (inactive); in the assay with SR, 38.4 µM (inactive); with UACC-257 it was > 10 µM (inactive); in the assay on SK-OV-3, > 100 µM (inactive). In addition, the GI50 in the assay on ACHN was > 10 µM (inactive); in the assay on HT-29, > 10 µM (inactive); in the assay with OVCAR-8 it was > 10 µM (inactive); in the assay with MDA-MB-231 it was > 10 µM (inactive); with TK-10 it was 36 µM (inactive); in the assay with SK-MEL-5, 41.8 µM (inactive). The GI50 is 14.8 µM (inactive) with MOLT-4; 13.8 µM (inactive) in the assay on MDA-MB-435; > 100 µM (inactive) in the assay on Hs-578T; 56.4 µM (inactive) in the assay with SF-268; 33.1 µM (inactive) in the assay with HL-60.
